What was measured:
[1] = test system: barnyardgrass; experiment: Test B flooded paddy test; format: in vivo, Echinochloa crus-galli; conditions: Flood, 250 g ai/ha; 0 to 100 scale where 0 is no effect and 100 is complete control
In short: (§1)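 2-leaf stage plants; pots flooded to 3 cm, compound added to paddy water, depth maintained. Greenhouse 13–15 d. Visual rating vs untreated controls, 0 (no effect) to 100 (complete control); dash = no result.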

[2] = test system: large (Lg) crabgrass; experiment: Test A postemergence; format: in vivo, Digitaria sanguinalis; conditions: for Crabgrass, Large plant response rating: 125 g ai/ha
In short: (§2)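 Injury scores run from 0, no effect, to 100, complete control, judged by eye against untreated plants roughly 10 days after treatment. Chemicals carried a surfactant in a non-phytotoxic solvent and went onto loam–sand soil preemergence or onto one- to two-leaf seedlings postemergence.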

[3] = test system: Heteranthera limosa; experiment: Test B flooded paddy test; format: in vivo; conditions: Flood, 250 g ai/ha; 0 to 100 scale where 0 is no effect and 100 is complete control
In short: as §1

[4] = test system: velvetleaf; experiment: Test A postemergence; format: in vivo, Abutilon theophrasti; conditions: for Velvetleaf plant response rating: 125 g ai/ha
In short: as §2

[5] = test system: corn; experiment: Test A preemergence; format: in vivo, Zea mays; conditions: for Corn plant response rating (0 to 100 scale): 125 g ai/ha
In short: as §2

[6] = test system: sedge, umbrella; experiment: Test B flooded paddy test; format: in vivo, Cyperus difformis; conditions: Flood, 250 g ai/ha; 0 to 100 scale where 0 is no effect and 100 is complete control
In short: as §1

[7] = test system: corn; experiment: Test A postemergence; format: in vivo, Zea mays; conditions: for Corn plant response rating: 125 g ai/ha
In short: as §2

[8] = test system: pigweed; experiment: Test A postemergence; format: in vivo, Amaranthus retroflexus; conditions: for Pigweed plant response rating: 125 g ai/ha
In short: as §2

[9] = test system: pigweed; experiment: Test A preemergence; format: in vivo, Amaranthus retroflexus; conditions: for Pigweed plant response rating (0 to 100 scale): 125 g ai/ha
In short: as §2

[10] = test system: wheat; experiment: Test A preemergence; format: in vivo, Triticum aestivum; conditions: for Wheat plant response rating (0 to 100 scale): 125 g ai/ha
In short: as §2

[11] = test system: velvetleaf; experiment: Test A preemergence; format: in vivo, Abutilon theophrasti; conditions: for Velvetleaf plant response rating (0 to 100 scale): 125 g ai/ha
In short: as §2

[12] = test system: giant foxtail; experiment: Test A preemergence; format: in vivo, Setaria faberii; conditions: for Foxtail, Giant plant response rating (0 to 100 scale): 125 g ai/ha
In short: as §2

[13] = test system: barnyardgrass; experiment: Test A preemergence; format: in vivo, Echinochloa crus-galli; conditions: for Barnyardgrass plant response rating (0 to 100 scale, 0 is no effect, 100 is complete control): 125 g ai/ha
In short: as §2

[14] = test system: large (Lg) crabgrass; experiment: Test A preemergence; format: in vivo, Digitaria sanguinalis; conditions: for Crabgrass, Large plant response rating (0 to 100 scale): 125 g ai/ha
In short: as §2

[15] = test system: morningglory; experiment: Test A postemergence; format: in vivo, Ipomoea spp.; conditions: for Morningglory plant response rating: 125 g ai/ha
In short: as §2

[16] = test system: wheat; experiment: Test A postemergence; format: in vivo, Triticum aestivum; conditions: for Wheat plant response rating: 125 g ai/ha
In short: as §2

[17] = test system: rice; experiment: Test B flooded paddy test; format: in vivo, Oryza sativa; conditions: Flood, 250 g ai/ha; 0 to 100 scale where 0 is no effect and 100 is complete control
In short: as §1

[18] = test system: morningglory; experiment: Test A preemergence; format: in vivo, Ipomoea spp.; conditions: for Morningglory plant response rating (0 to 100 scale): 125 g ai/ha
In short: as §2

[19] = test system: giant foxtail; experiment: Test A postemergence; format: in vivo, Setaria faberii; conditions: for Foxtail, Giant plant response rating: 125 g ai/ha
In short: as §2

[20] = test system: barnyardgrass; experiment: Test A postemergence; format: in vivo, Echinochloa crus-galli; conditions: for Barnyardgrass plant response rating: 125 g ai/ha
In short: as §2

[21] = 0 to 100 scale where 0 is no effect and 100 is complete control
[22] = 500 g ai/ha, 0 to 100 scale where 0 is no effect and 100 is complete control
[23] = 1000 g ai/ha, 0 to 100 scale, 0 no effect, 100 complete control
[24] = 1000 g ai/ha, 0 to 100 scale, 0 no effect, 100 complete control, approx. 10 days

Row | SMILES | Plant response rating, Barnyardgrass [1] | Crabgrass, Large plant response rating [2, 21] | Plant response rating, Crabgrass, Large [2, 22] | Plant response rating, Ducksalad [3] | Velvetleaf plant response rating [4, 21] | Plant response rating, Velvetleaf [4, 22] | Corn plant response rating (0 to 100 scale) [5] | Corn plant response rating [5, 22] | Plant response rating, Sedge, Umbrella [6] | Corn plant response rating [7, 21] | Plant response rating, Corn [7, 22] | Pigweed plant response rating [8, 21] | Plant response rating, Pigweed [8, 22] | Pigweed plant response rating (0 to 100 scale) [9] | Pigweed plant response rating [9, 22] | Wheat plant response rating (0 to 100 scale) [10] | Wheat plant response rating [10, 22] | Velvetleaf plant response rating (0 to 100 scale) [11] | Velvetleaf plant response rating [11, 22] | Plant response rating, Rice [17] | further results
1 | C#Cc1cnc(Oc2cccc(C#N)c2-n2cc(Br)cn2)nc1 [Compound 215] | 0 | 10 | 30 | 0 | 40 | 50 | 0 | 0 | 0 | 0 | 20 | 70 | 80 | 90 | 100 | 0 | 0 | 0 | 10 | 0 | Foxtail, Giant plant response rating (0 to 100 scale) [12]: 0; Foxtail, Giant plant response rating [12, 22]: 50; Barnyardgrass plant response rating (0 to 100 scale, 0 is no effect, 100 is complete control) [13]: 0; Barnyardgrass plant response rating [13, 22]: 10; Crabgrass, Large plant response rating (0 to 100 scale) [14]: 20; Crabgrass, Large plant response rating [14, 22]: 80; Morningglory plant response rating [15, 21]: 10; Plant response rating, Morningglory [15, 22]: 10; Wheat plant response rating [16, 21]: 0; Plant response rating, Wheat [16, 22]: 0; Morningglory plant response rating (0 to 100 scale) [18]: 0; Morningglory plant response rating [18, 22]: 0; Foxtail, Giant plant response rating [19, 21]: 0; Plant response rating, Foxtail, Giant [19, 22]: 10; Barnyardgrass plant response rating [20, 21]: 0; Plant response rating, Barnyardgrass [20, 22]: 30
2 | Clc1cnc(Oc2ccccc2-n2ccnn2)nc1 [Compound 217] | 0 |  |  | 0 |  |  |  |  | 0 |  |  |  |  |  |  |  |  |  |  | 0 | Plant response rating, Crabgrass, Large [2, 23]: 60; Plant response rating, Velvetleaf [4, 23]: 100; Corn plant response rating [5, 24]: 0; Plant response rating, Corn [7, 23]: 0; Plant response rating, Pigweed [8, 23]: 100; Pigweed plant response rating [9, 24]: 100; Wheat plant response rating [10, 24]: 0; Velvetleaf plant response rating [11, 24]: 100; Foxtail, Giant plant response rating [12, 24]: 90; Barnyardgrass plant response rating [13, 24]: 70; Crabgrass, Large plant response rating [14, 24]: 100; Plant response rating, Morningglory [15, 23]: 90; Plant response rating, Wheat [16, 23]: 20; Morningglory plant response rating [18, 24]: 40; Plant response rating, Foxtail, Giant [19, 23]: 50; Plant response rating, Barnyardgrass [20, 23]: 30
3 | COc1cnc(Oc2cccc(C#N)c2-n2cc(Br)cn2)nc1 [Compound 218] | 0 | 50 | 70 | 50 | 30 | 100 | 0 | 0 | 40 | 0 | 40 | 90 | 100 | 100 | 100 | 0 | 0 | 10 | 50 | 0 | Foxtail, Giant plant response rating (0 to 100 scale) [12]: 20; Foxtail, Giant plant response rating [12, 22]: 100; Barnyardgrass plant response rating (0 to 100 scale, 0 is no effect, 100 is complete control) [13]: 10; Barnyardgrass plant response rating [13, 22]: 70; Crabgrass, Large plant response rating (0 to 100 scale) [14]: 80; Crabgrass, Large plant response rating [14, 22]: 100; Morningglory plant response rating [15, 21]: 70; Plant response rating, Morningglory [15, 22]: 90; Wheat plant response rating [16, 21]: 0; Plant response rating, Wheat [16, 22]: 20; Morningglory plant response rating (0 to 100 scale) [18]: 0; Morningglory plant response rating [18, 22]: 10; Foxtail, Giant plant response rating [19, 21]: 20; Plant response rating, Foxtail, Giant [19, 22]: 70; Barnyardgrass plant response rating [20, 21]: 30; Plant response rating, Barnyardgrass [20, 22]: 70
4 | Clc1cnc(Oc2cccc(Cl)c2-n2cc(Br)cn2)nc1 [Compound 219] | 0 | 90 | 100 | 100 | 100 | 100 | 0 | 10 | 85 | 20 | 70 | 100 | 100 | 100 | 100 | 0 | 0 | 10 | 20 | 0 | Foxtail, Giant plant response rating (0 to 100 scale) [12]: 100; Foxtail, Giant plant response rating [12, 22]: 100; Barnyardgrass plant response rating (0 to 100 scale, 0 is no effect, 100 is complete control) [13]: 30; Barnyardgrass plant response rating [13, 22]: 90; Crabgrass, Large plant response rating (0 to 100 scale) [14]: 100; Crabgrass, Large plant response rating [14, 22]: 100; Morningglory plant response rating [15, 21]: 70; Plant response rating, Morningglory [15, 22]: 100; Wheat plant response rating [16, 21]: 0; Plant response rating, Wheat [16, 22]: 70; Morningglory plant response rating (0 to 100 scale) [18]: 0; Morningglory plant response rating [18, 22]: 10; Foxtail, Giant plant response rating [19, 21]: 70; Plant response rating, Foxtail, Giant [19, 22]: 90; Barnyardgrass plant response rating [20, 21]: 50; Plant response rating, Barnyardgrass [20, 22]: 100
